Laboratory results published in article PMC4249368 (Antimicrobial Agents and Chemotherapy, 2014).
Converted amounts (≈) assume the structure as drawn. “Also recorded” adds a separate entry of the source. Read-outs that look alike come from different tables or passages of the source. No end group written: not given here.

Key:
MSSA ATCC 25923 [1] = conditions: for MIC, MHB: Table S1, MHB without serum, Corning NonTC microtitre plates (CLS3370); for MIC in the presence of 50% human serum: MHB with 50% human serum, broth microdilution
Method: MSSA ATCC 25923 was purchased from the American Type Culture Collection (Manassas, VA). Mueller-Hinton broth (MHB; Bacto Laboratories Pty. Ltd.) was used to grow MSSA for determination of in vitro antibacterial activity in the presence and absence of 50% human serum (Life Technologies Australia, Melbourne, Australia) and time-kill assays. Luria-Bertani (LB) medium (Difco) and MHB adjusted with Ca^2+ (25 mg/liter) and Mg^2+ (12.5 mg/liter) (CA-MHB) were used for bacterial growth in the membrane depolarization assay and TEM, respectively. The phospholipids used for SPR analysis, 1-palmitoyl-2-oleoyl-sn-glycero-3-phosphoglycerol (POPG), 1-palmitoyl-2-oleoyl-sn-glycero-3-phosphocholine (POPC), and 1-palmitoyl-2-oleoyl-sn-glycero-3-phosphoethanolamine (POPE), were purchased from Auspep Pty. Ltd. (Melbourne, Australia).
(§1) MICs against MSSA ATCC 25923 were measured by broth microdilution according to the Clinical and Laboratory Standards Institute (CLSI) M7-A7 methodology ([30]). Briefly, serial 2-fold dilutions of each antibiotic were added into Costar nontreated polystyrene 96-well plates, and each well was inoculated with 50 μl of MSSA in MHB to a final concentration of approximately 5 × 10^5 CFU/ml. […] The dilution representing the MIC and two of the more and less concentrated dilutions were plated out onto Trypticase soy agar plates and enumerated to determine viable CFU/ml ([31]).

[2] = SPR binding to lipid bilayers on Biacore L1 chip; conditions: for normalized antibiotic bound to the three lipid bilayers (result in words): 10 μM, normalized to molecular weight and RULipid, Fig. 3B, n = 3
Method: Lipid stock solutions were prepared in chloroform and mixed at the described mass composition of POPC, POPC/POPG (8:2, wt/wt) and POPC/POPE (8:2, wt/wt) ([33]), and the chloroform was evaporated as previously described ([34]). The lipids were resuspended in 1 ml of filtered (0.22-μm pore size) running buffer (phosphate-buffered saline [PBS]; pH 7.3) and then sonicated for 25 min in 5-min intervals. Small unilamellar vesicles (SUVs) were prepared by extrusion through a polycarbonate filter with a 50-nm pore diameter ([35]).
SPR experiments were carried out with a Biacore T200 system (GE Health, Australia) using a Biacore vesicle capture (L1) sensor chip, which has lipophilic groups covalently attached to carboxymethylated dextran that facilitates direct lipid bilayer deposition ([34], [36]). All measurements were undertaken at a temperature of 25°C to maintain the lipid bilayer fluidity ([34]). SUVs at a total lipid concentration of 0.5 mg/ml were immediately passed across the chip surface for 60 min at a low flow rate of 2 μl/min, following three 30-s injections of 20 mM 3-cholamidopropyl-dimethylammonio-1-propane sulfonate (CHAPS) solution at a high flow rate of 30 μl/min to completely remove the captured vesicles from the sensor chip. To remove any multilamellar structures from the lipid surface and to stabilize the baseline, 10 mM NaOH was injected for 1 min at 50 μl/min. The coverage extent of the surface was later determined by a 5-min injection of 0.1 mg/ml bovine serum albumin (BSA) at a flow rate of 10 μl/min.
The antibiotics were serially diluted in running buffer and then injected sequentially from the lowest (0.01 μM) to the highest (10 μM) concentration at a flow rate of 20 μl/min for 180 s, followed by a dissociation of 300 s and a 1-min regeneration with 10 mM HCl at a flow rate of 10 μl/min. SPR experiments were performed in triplicate. The actual amount of antibiotic bound to each lipid bilayer was corrected by subtraction of the bulk refractive index difference (buffer control) and then normalized by dividing the antibiotic-bound resonance units (RUBound) obtained in the SPR sensorgrams (see Fig. 3A, below) by the corresponding antibiotic molecular weight and the resonance units of the individual lipid vesicle captured on the chip surface (RULipid) (see Fig. S1 in the supplemental material) by using the following equation: normalized antibiotic bound = (10^3 × RUBound)/(molecular weight × RULipid). Normalization against molecular weight and RULipid was necessary, as SPR units are mass dependent and RULipid values vary according to lipid type ([37]).

MSSA ATCC 25923 [3] = conditions: for MBC, 10% Human serum: Table S1, MHB with 10% human serum; for MBC, 50% Human serum: Table S1, MHB with 50% human serum; for MBC, MHB: Table S1, MHB without serum, clear wells plated onto agar, 37°C overnight
Method: as §1, with “([31]). […]” for “([31]).”
25923 in MHB media in the presence and absence of Human serum (10% and 50%) in
Corning NonTC microtitre plates (CLS3370)
a The MBCs were determined by plating out the clear wells onto an agar plate and were incubated at
37°C overnight. Each colony represents one viable bacterium. […]

MSSA ATCC 25923 [4] = assay: Membrane depolarization assay with DiSC3(5); type: cell-based, Staphylococcus aureus; conditions: for membrane depolarization (result in words): 0.1 to 30 μM, Fig. 4, n = 3
Method: Antibiotic-induced bacterial cytoplasmic membrane depolarization was determined by using the fluorescent dye 3,3-dipropylthiacarbocyanine [DiSC3(5); Sigma-Aldrich, Australia] as previously described ([38]) with a high-throughput modification. Briefly, mid-logarithmic-phase MSSA ATCC 25923 cells were collected by centrifugation (5,000 × rpm, 10 min), washed once and diluted to approximately 5 × 10^7 CFU/ml in buffer (5 mM HEPES, 5 mM glucose; pH 7.2). The cell suspension was incubated with 0.4 μM DiSC3(5) until dye uptake was maximal, as indicated by a stable reduction in fluorescence of assay medium. KCl at 100 mM was added to equilibrate the cytoplasmic and external K^+ concentrations. A 90-μl aliquot of cell suspension was transferred into an Optiplate 96-well white microplate (PerkinElmer Corp., Australia), and 10 μl of antibiotic was added, to yield a series of solutions ranging from 0.1 to 30 μM. A blank with only cell suspension and dye was used for background subtraction. The fluorescence intensity was monitored in real time by using a BMG Labtech PolarStar Omega multimode reader fitted with 620-10 and 665-10 excitation and emission filters, respectively, at an excitation wavelength of 622 nm and an emission wavelength of 670 nm. The membrane depolarization assays were performed in triplicate, and the fluorescence leakage (FL) was defined by the following equation: FL = (FF − FB) − (FI − FB). Here, FF was the final fluorescence intensity in assay medium after 30 min of treatment with antibiotic, FI was the initial fluorescence intensity of the cell suspension, and FB was the fluorescence intensity of the blank.

[5] = design: method as in PMID 23872123, PMID 9791177, PMID 16531990; conditions: phospholipid bilayers; cited from earlier work
[6] = design: method as in PMID 23872123, PMID 9791177, PMID 16531990; conditions: Lipid II pyrophosphate moiety; cited from earlier work
MSSA ATCC 25923 [7] = assay: Time-kill studies (CLSI M26-A); type: cell-based, Staphylococcus aureus
Method: Time-kill studies were carried out based on guideline M26-A of the CLSI ([32]), using Costar nontreated polystyrene 96-well plates. […] Culture aliquots were mixed with the charcoal suspension (25 mg/ml) to minimize antibiotic carryover. Viable cell counts were determined after 0, 0.5, 1, 2, 4, 6, 8, and 24 h of incubation at 37°C by plating serially diluted samples onto Trypticase soy agar plates. Bactericidal activity was defined as a ≥3-log10 CFU/ml decrease, in comparison with the baseline, after 24 h of incubation ([32]).

MSSA ATCC 25923 [8] = assay: TEM examination of bacterial ultrastructure; type: cell-based, Staphylococcus aureus; conditions: 3 h, 37°C, CA-MHB
Method: After centrifugation (8,000 × rpm, 3 min), the pellets were resuspended in 1 ml of 3% (vol/vol) glutaraldehyde in 0.1 M sodium cacodylate. Glutaraldehyde–fixed samples were washed twice with 0.1 M sodium cacodylate. To postfit cells, 1% (wt/vol) osmium tetraoxide was added. After the wash step, samples were stained with 2% (wt/vol) uranyl acetate in 50% ethanol. Samples were then dehydrated with graded ethanol solutions and infiltrated with Epon resin (ProSciTech, Townsville, Australia). All processes were performed on a Pelco 34700 Biowave microwave oven (Ted Pella Inc., Redding, CA). Ultrathin sections were cut at 60 to 70 nm by using a UC6 ultramicrotome (Leica). The sections were examined in a JEM 1011 TEM operated at 80 kV and photographed using a digital camera.

[9] = system: MurG-catalyzed reaction of peptidoglycan biosynthesis; conditions: relative to MIC against MSSA ATCC 25923; cited from earlier work
MSSA and MRSA strains = conditions: cited from earlier work
Description: The importance of the membrane depolarization and bactericidal killing in vivo is difficult to quantify due to the limited published pharmacokinetic (PK) studies ([18], [19]), as well as its nonsystemic oral administration in human clinical trials. In addition, MIC determinations can be highly dependent on plate type, serum, and BSA ([18], [41]).

[10] = system: transglycosylation step of peptidoglycan biosynthesis; conditions: relative to MIC against MSSA ATCC 25923; cited from earlier work
[11] = MHB, broth microdilution CLSI M7-A7, ~5 × 10^5 CFU/ml, 24 h, 37°C, Costar nontreated polystyrene 96-well plates

| Molecule | MIC (MSSA ATCC 25923 [1]; [11]) | MIC, MHB (MSSA ATCC 25923 [1]) | normalized antibiotic bound to the three lipid bilayers (result in words) [2] | MBC, 10% Human serum (MSSA ATCC 25923 [3]) | MBC, 50% Human serum (MSSA ATCC 25923 [3]) | MBC, MHB (MSSA ATCC 25923 [3]) | membrane depolarization (result in words) (MSSA ATCC 25923 [4]; 30 min treatment) | MIC in the presence of 50% human serum (MSSA ATCC 25923 [1]; 24 h, 37°C) | further results |
| --- | --- | --- | --- | --- | --- | --- | --- | --- | --- |
| teicoplanin | 1 µg/mL | 2 µg/mL | bound preferentially to the anionic membrane over zwitterionic membranes | 0.25 µg/mL | 0.5 µg/mL | 4 µg/mL | measurable but minor fluorescence leakage at concentrations significantly higher than the MIC |  |  |
| nisin | 32 µg/mL |  | no binding to either anionic or zwitterionic phospholipid bilayers |  |  |  | dramatic membrane depolarization at the MIC and above |  | Kd [5]: 100 µM; concentration at which membrane depolarization occurs (MSSA ATCC 25923 [4]; 30 min treatment, DiSC3(5), normalized to citropin 1.1 at 10 μM, ramoplanin 3× MIC gives similar extent as […] MIC nisin): 0.25 × MIC; Kd [6]: 10 nM |
| CN[C@H](CC(C)C)C(=O)N[C@H]1C(=O)N[C@@H](CC(N)=O)C(=O)N[C@H]2C(=O)N[C@H]3C(=O)N[C@H](C(=O)N[C@H](C(=O)O)c4cc(O)cc(O)c4-c4cc3ccc4O)[C@H](O)c3ccc(c(Cl)c3)Oc3cc2cc(c3O[C@@H]2O[C@H](CO)[C@@H](O)[C@H](O)[C@H]2O[C@H]2C[C@](C)(N)[C@H](O)[C@H](C)O2)Oc2ccc(cc2Cl)[C@H]1O [vancomycin] | 1 µg/mL (≈ 0.69 µM) | 2 µg/mL (≈ 1.38 µM) | negligible binding to each of the three different membranes | 2 µg/mL (≈ 1.38 µM) | 2 µg/mL (≈ 1.38 µM) | 2 µg/mL (≈ 1.38 µM) |  | 2 µg/mL | MIC, 10% Human serum (MSSA ATCC 25923 [1]; Table S1, MHB with 10% human serum, Corning NonTC plates): 1/2; MIC, 50% Human serum (MSSA ATCC 25923 [1]; Table S1, MHB with 50% human serum, Corning NonTC plates): 2 µg/mL (≈ 1.38 µM); fluorescence leakage (MSSA ATCC 25923 [4]; 12× MIC, 30 min): no leakage; reduction in viable count (MSSA ATCC 25923 [7]; vancomycin at the MBC and above for 8 h): > 3 log10 CFU/ml; morphological changes by TEM (MSSA ATCC 25923 [8]; 16× MIC): did not cause septal deformation or loss of midline |
| ramoplanin |  |  | POPC:POPG (8:2) > POPC > POPC:POPE (8:2) |  | 0.5 µg/mL | 8/2 | dose-dependent membrane depolarization but less efficiently than nisin | 0.5 µg/mL | SPR dissociation after completion of injection ([2]; 0.01 to 1 μM): complete dissociation; SPR association with membranes at low concentrations ([2]; 0.01 to 1 μM, PBS pH 7.3, 25°C): negligible association; SPR binding response (RUBound) ([2]; 3 and 10 μM, both anionic and zwitterionic membranes, 180 s injection, PBS pH 7.3, 25°C): ~6,000 RU; concentration at which binding to anionic and zwitterionic membranes occurs ([2]; dose-dependent): ≥ 3 µM; MBC as multiple of MIC (MSSA ATCC 25923 [3]): 2 × MIC; MBC (MSSA ATCC 25923 [3]; lowest concentration yielding 99.9% reduction in initial colony count after 24 h, MHB): 4 µg/mL; time to bactericidal activity (MSSA ATCC 25923 [7]; concentrations equal to or above the MBC): less than 4 h; IC50, MurG-catalyzed reaction [9]: 20 × MIC; effect of 50% human serum on MIC (MSSA and MRSA strains): not affected; morphological changes by TEM (MSSA ATCC 25923 [8]; 1× MIC): deformed septa that were slightly thickened, misshapen, and lacked distinct septal midlines; also recorded: appearance of mesosome structures in cell membranes; 50% inhibitory concentration (IC50), transglycosylation [10]: 0.25 × MIC |
| GLFDVIKKVASVIGGL-NH2 [citropin 1.1] |  |  |  |  |  |  |  |  | MIC (MSSA ATCC 25923 [1]; ATCC 25923, 24 h): 32 µg/mL |
